Experimental findings from patent US20170253601A1, “Substituted Pyrrolidine Compounds” (EPIZYME, INC., priority 2014, published 2017) are described below.

pIC50: −log10 of the molar value.

T1 sequence (Q9NRG4 whole entry): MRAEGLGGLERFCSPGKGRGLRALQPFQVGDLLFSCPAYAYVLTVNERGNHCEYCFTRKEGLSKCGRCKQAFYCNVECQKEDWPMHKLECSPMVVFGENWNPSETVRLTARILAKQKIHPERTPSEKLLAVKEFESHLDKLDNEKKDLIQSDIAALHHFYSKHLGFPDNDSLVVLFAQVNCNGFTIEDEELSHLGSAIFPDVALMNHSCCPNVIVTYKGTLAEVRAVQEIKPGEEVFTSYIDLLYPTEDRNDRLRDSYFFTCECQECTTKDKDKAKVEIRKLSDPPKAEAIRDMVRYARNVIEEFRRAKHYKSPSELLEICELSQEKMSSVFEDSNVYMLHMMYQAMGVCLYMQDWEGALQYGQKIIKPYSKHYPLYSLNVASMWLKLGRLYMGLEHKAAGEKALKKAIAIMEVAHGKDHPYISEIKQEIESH

The first assay addresses T1, SMYD2 (Homo sapiens, UniProt Q9NRG4).
T1 construct: Full length SMYD2 (NP 064582.2) was cloned; His6 (N, cleaved yes); FLAG (N); made in house; host or cells: Sf9 insect cells
In words: SMYD2 Biochemical Assay (3H-SAM, biotinylated peptide substrate, Flashplate). To be noted: IC50 values are an average of n = 1 to n = 50; read-out: SMYD2 Biochem IC50 (μM)*. The gist of the method:
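Full-length His/FLAG-tagged SMYD2 expressed in Sf9 cells with tag cleaved, 1.5 nM, pre-incubated 30 min at room temperature with compound, then 10 nM 3H-SAM and 60 nM biotinylated peptide added. Buffer 20 mM Bicine pH 7.6, 1 mM TCEP, 0.005% BSG, 0.002% Tween20, 2% DMSO. Stopped with 600 uM cold SAM; 3H-peptide captured on streptavidin Flashplate; IC50 by curve fit.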
Take `CC(C)N1C[C@@H](C)[C@H](NC(=O)c2cc(C3CCC3)on2)C1` (racemic) [compound 249, (±)-trans-5-cyclobutyl-N-[4-methyl-1-(propan-2-yl)pyrrolidin-3-yl]-1,2-oxazole-3-carboxamide]: the half-maximal inhibitory concentration (IC50) (as a rule, the point on the concentration scale where inhibition reaches its midpoint) was more than 50 µM.

`CC(C)c1cc(C(=O)N[C@H]2C[C@H](CNC(=O)C3CCCCC3)N(C3CC3)C2)no1` (stereo in doubt) [compound 190, (±)-trans-N-[5-[(cyclohexyl-formamido)methyl]-1-cyclopropylpyrrolidin-3-yl]-5-(propan-2-yl)-1,2-oxazole-3-carboxamide]: the concentration for half-maximal inhibition (IC50) is more than 50 µM.

`CC(Cc1ccc2c(c1)OCO2)CN1C[C@H](C)[C@H](NC(=O)c2cc(C3CC3)on2)C1` (relative stereo) [compound 323, cis-N-{1-[2-(2H-1,3-benzodioxol-5-ylmethyl)propyl]-4-methylpyrrolidin-3-yl}-5-cyclopropyl-1,2-oxazole-3-carboxamide]: the IC50 is 9.31 µM.

Turning to `CNC(=O)CN1C[C@H](C)[C@H](NC(=O)c2cc(C3CC3)on2)C1` (racemic) [compound 287, (±)-cis-5-cyclopropyl-N-{4-methyl-1-[(methyl-carbamoyl)methyl]pyrrolidin-3-yl}-1,2-oxazole-3-carboxamide], the IC50 was more than 50 µM.

Consider `C[C@H]1CN(CC2CCCOC2)C[C@H]1NC(=O)c1cc(C2CC2)on1` (mixture of isomers) [compound 185, (±)-cis-5-cyclopropyl-N-[4-methyl-1-(oxan-3-ylmethyl)pyrrolidin-3-yl]-1,2-oxazole-3-carboxamide], for which the IC50 is 4.92 µM.

Turning to `C[C@@H]1CN(c2cccnc2)C[C@H]1NC(=O)c1cc(C2CC2)on1` (racemic) [compound 309, (±)-trans-5-cyclopropyl-N-[4-methyl-1-(pyridin-3-yl)pyrrolidin-3-yl]-1,2-oxazole-3-carboxamide], the half-maximal inhibitory concentration (IC50) was more than 50 µM.

As for `COC(=O)CN1C[C@H](C)[C@H](NC(=O)c2cc(C3CC3)on2)C1` (racemic) [compound 221, (±)-cis-methyl 2-[3-(5-cyclopropyl-1,2-oxazole-3-amido)-4-methylpyrrolidin-1-yl]acetate], the 50% inhibitory concentration (IC50) was more than 50 µM.

For `CCC[C@H]1CN(C(C)C)C[C@@H]1NC(=O)c1cc(C2CC2)on1` (racemic) [compound 151, (±)-trans-5-cyclopropyl-N-[1-(propan-2-yl)-4-propylpyrrolidin-3-yl]-1,2-oxazole-3-carboxamide], the 50% inhibitory concentration (IC50) was more than 50 µM.

Take `CC(C)C[C@H]1CN(C)C[C@@H]1NC(=O)c1cc(C2CC2)on1` (racemic) [compound 153, (±)-trans-5-cyclopropyl-N-[1-methyl-4-(2-methylpropyl)pyrrolidin-3-yl]-1,2-oxazole-3-carboxamide]: the IC50 is 39.1 µM.

`C[C@H]1CN(c2cccc(Cl)c2)C[C@H]1NC(=O)c1cc(C2CC2)on1` (racemic) [compound 307, (±)-cis-N-[1-(3-chlorophenyl)-4-methylpyrrolidin-3-yl]-5-cyclopropyl-1,2-oxazole-3-carboxamide]: the IC50 is more than 50 µM.

Take `CC(N1C[C@H](C)[C@H](NC(=O)c2cc(C3CC3)on2)C1)C(F)(F)F` (stereo in doubt) [compound 285, trans-5-cyclopropyl-N-[4-methyl-1-(1,1,1-trifluoropropan-2-yl)pyrrolidin-3-yl]-1,2-oxazole-3-carboxamide]: the concentration for half-maximal inhibition (IC50) was more than 50 µM.

`C[C@H]1CN(c2ccc(Cl)cc2)C[C@H]1NC(=O)c1cc(C2CC2)on1` (racemic) [compound 273, (±)-cis[N-[1-(4-chloro-phenyl)-4-methyl-pyrrolidin-3-yl]-5-cyclopropyl-1,2-oxazole-3-carboxamide]: the half-inhibitory concentration (IC50) was more than 50 µM.

Regarding `C[C@H]1CN(CC2CCN(C)CC2)C[C@H]1NC(=O)c1cc(C2CC2)on1` (racemic) [compound 338, (±)-cis-5-cyclopropyl-N-{4-methyl-1-[(1-methylpiperidin-4-yl)methyl]pyrrolidin-3-yl}-1,2-oxazole-3-carboxamide], the IC50 is more than 50 µM.

As for `C[C@H]1CN(CCO)C[C@H]1NC(=O)c1cc(C2CC2)on1` (racemic) [compound 276, (±)-cis-5-cyclopropyl-N-[1-(2-hydroxyethyl)-4-methylpyrrolidin-3-yl]-1,2-oxazole-3-carboxamide], the half-maximal inhibitory concentration (IC50) was found to be 5.85 µM.

On to `C[C@H]1CN(CCc2ccccc2)C[C@H]1NC(=O)c1cc(C2CC2)on1` (racemic) [compound 291, (±)-cis-5-cyclopropyl-N-[4-methyl-1-(2-phenylethyl)pyrrolidin-3-yl]-1,2-oxazole-3-carboxamide], for which the IC50 came out at 2.46 µM.

For the molecule `C[C@@H]1CN(CC2CCOC2)C[C@H]1NC(=O)c1cc(C2CC2)on1` (mixture of isomers) [compound 137, (±)-trans-5-cyclopropyl-N-[4-methyl-1-(oxolan-3-ylmethyl)pyrrolidin-3-yl]-1,2-oxazole-3-carboxamide], the IC50 is more than 50 µM.

`CC[C@H]1CN(C)C[C@@H]1NC(=O)c1cc(C2CC2)on1` (racemic) [compound 157, (±)-trans-5-cyclopropyl-N-[4-ethyl-1-methyl-pyrrolidin-3-yl]-1,2-oxazole-3-carboxamide]: the IC50 worked out at 45.3 µM.

Consider `C[C@@H]1CN(Cc2ccc(Cl)cc2Cl)C[C@H]1NC(=O)c1cc(C2CC2)on1` (racemic) [compound 136, (±)-trans-5-cyclopropyl-N-[1-[(2,4-dichloro-phenyl)methyl]-4-methylpyrrolidin-3-yl]-1,2-oxazole-3-carboxamide], for which the half-inhibitory concentration (IC50) is more than 50 µM.

Take `C[C@@H]1CN(C2CCS(=O)(=O)CC2)C[C@@H]1NC(=O)c1cc(C2CC2)on1` (racemic) [compound 166, (±)-cis-5-cyclopropyl-N-(1-(1,1-dioxido-tetrahydro-2H-thiopyran-4-yl)-4-methylpyrrolidin-3-yl)isoxazole-3-carboxamide]: the IC50 was found to be 19.8 µM.

For `C[C@H]1CN(CCC2CCNCC2)C[C@H]1NC(=O)c1cc(C2CC2)on1` (racemic) [compound 337, (±)-cis-5-cyclopropyl-N-{4-methyl-1-[2-(piperidin-4-yl)ethyl]pyrrolidin-3-yl}-1,2-oxazole-3-carboxamide], the IC50 is 10.6 µM.

Take `C[C@@H]1CN(Cc2ccc3nonc3c2)C[C@H]1NC(=O)c1cc(C2CC2)on1` [compound 182, N-[(3S,4R)-1-(2,1,3-benzoxadiazol-5-ylmethyl)-4-methyl-pyrrolidin-3-yl]-5-cyclopropyl-1,2-oxazole-3-carboxamide]: the IC50 is more than 50 µM.

On to `C[C@@H]1CN(Cc2cc3ccccc3s2)C[C@H]1NC(=O)c1cc(C2CC2)on1` (racemic) [compound 152, (±)-trans-N-[1-(1-benzothiophen-2-ylmethyl)-4-methyl-pyrrolidin-3-yl]-5-cyclopropyl-1,2-oxazole-3-carboxamide], for which the half-inhibitory concentration (IC50) was more than 50 µM.

Turning to `Cc1nc[nH]c1CN1C[C@H](C)[C@H](NC(=O)c2cc(C3CC3)on2)C1` (racemic) [compound 320, (±)-cis-5-cyclopropyl-N-{4-methyl-1-[(4-methyl-1H-imidazol-5-yl)methyl]pyrrolidin-3-yl}-1,2-oxazole-3-carboxamide], the IC50 is 11.6 µM.

Turning to `C[C@H]1CN(Cc2ccnn2C)C[C@H]1NC(=O)c1cc(C2CC2)on1` (racemic) [compound 306, (±)-cis-5-cyclopropyl-N-{4-methyl-1-[(1-methyl-1H-pyrazol-5-yl)methyl]pyrrolidin-3-yl}-1,2-oxazole-3-carboxamide], the half-maximal inhibitory concentration (IC50) was found to be 41.2 µM.

Take `CC(C)N1C[C@H](C)[C@H](NC(=O)c2cc(C3(C)CCC3)on2)C1` (racemic) [compound 260, (±)-cis-N-[4-methyl-1-(propan-2-yl)pyrrolidin-3-yl]-5-(1-methyl-cyclobutyl)-1,2-oxazole-3-carboxamide]: the IC50 is more than 50 µM.

Regarding `CC(C)[C@H]1CN(C(C)C)C[C@H]1NC(=O)c1cc(C2CC2)on1` (racemic) [compound 219, (±)-cis-N-[1,4-bis(propan-2-yl)pyrrolidin-3-yl]-5-cyclopropyl-1,2-oxazole-3-carboxamide], the IC50 was more than 50 µM.

For the molecule `CCC[C@H]1CN(C)C[C@@H]1NC(=O)c1cc(C2CC2)on1` (racemic) [compound 150, (±)-trans-5-cyclopropyl-N-[1-methyl-4-propylpyrrolidin-3-yl]-1,2-oxazole-3-carboxamide], the IC50 stood at 44.9 µM.

`C[C@@H]1CN(c2ccccn2)C[C@H]1NC(=O)c1cc(C2CC2)on1` (racemic) [compound 312, (±)-trans-5-cyclopropyl-N-[4-methyl-1-(pyridin-2-yl)pyrrolidin-3-yl]-1,2-oxazole-3-carboxamide]: the concentration for half-maximal inhibition (IC50) is more than 50 µM.

The same assay, now with this note: Table 1; average of n = 1 to n = 50; read-out: SMYD2 Biochem IC50.
On to `C[C@@H]1CN(C2CC2)C[C@H]1NC(=O)c1cc(C2CC2)on1` (racemic) [Cpd. No. 46, (±)-trans-5-cyclopropyl-N-(1-cyclopropyl-4-methylpyrrolidin-3-yl)isoxazole-3-carboxamide], for which the pIC50 (as a rule, the negative decadic logarithm of the IC50, by convention in mol/L) is 5.56.

`C[C@H]1CN(C)C[C@H]1NC(=O)c1cc(C2CC2)on1` (racemic) [compound 44]: the pIC50 was 5.34.

`C[C@H]1CNC[C@H]1NC(=O)c1cc(C2CC2)on1` (racemic) [compound 38, (±)-cis-5-cyclopropyl-N-(4-methylpyrrolidin-3-yl)isoxazole-3-carboxamide]: the negative-log IC50 (pIC50) is 4.81.

With `C[C@H]1CN(C2CC2)C[C@H]1NC(=O)c1cc(C2CCCC2)on1` (racemic) [compound 54, (±)-cis-5-cyclopentyl-N-(1-cyclopropyl-4-methylpyrrolidin-3-yl)isoxazole-3-carboxamide], the negative-log IC50 (pIC50) was less than 4.30.

`CCc1cc(C(=O)N[C@H]2CN(C3CC3)C[C@@H]2C)no1` (racemic) [compound 52, (±)-trans-N-(1-cyclopropyl-4-methylpyrrolidin-3-yl)-5-ethylisoxazole-3-carboxamide]: the pIC50 is less than 4.30.
